This note sets out measurements from article doi:10.1101/2024.10.27.620470v1 (biorxiv, 2024).

Each structure is given as a SMILES string.

The experiment deals with G3BP1NTF-2-GFP (Homo sapiens, UniProt Q13283). As to the kind of experiment: fluorescence plate PPI inhibition assay. Format: biochemical.
Sequence of G3BP1NTF-2-GFP (Q13283 1-139): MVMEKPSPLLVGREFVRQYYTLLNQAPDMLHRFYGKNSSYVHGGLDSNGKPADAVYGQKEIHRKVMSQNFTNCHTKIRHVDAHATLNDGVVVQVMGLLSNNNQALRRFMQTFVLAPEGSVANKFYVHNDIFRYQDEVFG
Regarding `CN1C[C@H](C(=O)N[C@]2(C)O[C@@]3(O)[C@@H]4CCCN4C(=O)[C@H](Cc4ccccc4)N3C2=O)C[C@@H]2c3cccc4[nH]cc(c34)C[C@H]21` [Dihydroergotamine], half-maximal inhibition (IC50) was put at 13.2 ± 5.8 µM.
Take `O=C1NCN(c2ccccc2)C12CCN(CCCC(c1ccc(F)cc1)c1ccc(F)cc1)CC2` [Fluspirilene]: 10.5 ± 1.8 µM corresponded to half-maximal inhibition (IC50).
As to `CNC(=O)c1c(F)cccc1Nc1nc(Nc2cc3c(cc2OC)CCN3C(=O)CN(C)C)nc2[nH]ccc12` [GSK1838705A], the IC50 was determined as 14.5 ± 4.9 µM.
`COc1ccc(Br)cc1S(=O)(=O)NC(=O)/C=C/c1ccccc1Cc1ccc2ccccc2c1` [L-798106]: half-maximal inhibition (IC50) required 11.6 ± 4.5 µM.
The compound `CC[C@H](NC(=O)c1c(C)c(-c2ccccc2)nc2ccccc12)c1ccccc1` [SB_222200] returned an IC50 of 13 ± 0.6 µM.
